Laboratory results: patent publication US20190085024A1, “Alpha-Ketoamide Inhibitors Of Cysteine Proteases” (Phelix Therapeutics, priority 2017, published 2019)

Experiments:
Cathepsin B = Cathepsin B (Homo sapiens, UniProt P07858); test: Cathepsin B enzyme assay; settings: Cat B (μM), Ki by Morrison equation; pH 6.0, substrate Z-Phe-Arg-Amc
Cathepsin L = Cathepsin L (Homo sapiens, UniProt P07711); test: Cathepsin L enzyme assay; format: biochemical; settings: Ki by Morrison equation; pH 5.5, substrate Z-Phe-Arg-Amc; read-out: Cat L
From the text: Two wells contained DMSO only for controls.
Velocity was converted to μM/sec.

Calpain = Calpain enzyme assay; format: biochemical; settings: Ki by Morrison equation; pH 7.5, 5 mM CaCl2

Sequence of Cathepsin L (P07711 114-333, species assumed): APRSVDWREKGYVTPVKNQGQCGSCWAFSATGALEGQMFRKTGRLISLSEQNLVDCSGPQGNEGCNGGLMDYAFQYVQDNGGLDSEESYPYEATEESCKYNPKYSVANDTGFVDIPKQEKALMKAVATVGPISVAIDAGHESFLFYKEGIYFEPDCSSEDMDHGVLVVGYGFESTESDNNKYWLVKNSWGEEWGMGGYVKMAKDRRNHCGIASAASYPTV

| Compound | Ki (Cathepsin B) [µM] | Ki (Cathepsin L) [µM] | Ki (Calpain) [µM] |
| --- | --- | --- | --- |
| CCC(C)C(NC(=O)C(=O)C(C)NC(=O)Cc1ccccc1)C(=O)NC(C)(C)C(=O)O (centres unmarked) [PHELIX132, 2-methyl-2-(3-methyl-2-(2-oxo-3-(2-phenylacetamido)butanamido)pentanamido)propanoic acid] | 702 | 134 |  |
| CCC(C)C(NC(=O)C(=O)C(C)(C)NC(=O)Cc1ccccc1)C(=O)NC(C)(C)C(=O)O (centres unmarked) [PHELIX139, 2-methyl-2-(3-methyl-2-(3-methyl-2-oxo-3-(2-phenylacetamido)butanamido)pentanamido)propanoic acid] | 1130 | 57.4 |  |
| CC[C@H](C)[C@H](NC(=O)C(=O)C(C)NC(=O)C(Cc1ccccc1)NC(=O)Cc1ccccc1)C(=O)N1CCC[C@H]1C(=O)O (some centres unmarked) [PHELIX155, (2-oxo-3-(3-phenyl-2-(2-phenylacetamido)propanamido)butanoyl)isoleucylproline] | 0.0215 | 0.3 |  |
| CC(NC(=O)C(Cc1ccccc1)NC(=O)Cc1ccccc1)C(=O)C(=O)NC(Cc1ccc2ccccc2c1)C(=O)NC(C)(C)C(=O)O (centres unmarked) [PHELIX158, 12-benzyl-2,2,9-trimethyl-5-(naphthalen-2-ylmethyl)-4,7,8,11,14-pentaoxo-15-phenyl-3,6,10,13-tetraazapentadecanoic acid] | 0.439 | 0.141 |  |
| CCC(C)C(NC(=O)C(CC(C)C)NC(=O)C(Cc1ccccc1)NC(=O)Cc1ccncc1)C(=O)C(=O)NC(CCCNC(=N)N)C(N)=O (centres unmarked) [PHELIX346, N-(1-amino-5-guanidino-1-oxopentan-2-yl)-4-methyl-3-(4-methyl-2-(3-phenyl-2-(2-(pyridin-4-yl)acetamido)propanamido)pentanamido)-2-oxohexanamide] |  | 0.00328 | 0.00171 |
| CCC(C)C(NC(=O)C(CC(C)C)NC(=O)Cc1ccncc1)C(=O)C(=O)NCC(=O)N(C)C(Cc1ccccc1)C(N)=O (centres unmarked) [PHELIX353, N-(2-((1-amino-1-oxo-3-phenylpropan-2-yl)(methyl)amino)-2-oxoethyl)-4-methyl-3-(4-methyl-2-(2-(pyridin-4-yl)acetamido)pentanamido)-2-oxohexanamide] |  | 0.00055 | 0.00303 |
| CCC(C)C(NC(=O)C(CC(C)C)NC(=O)OCc1ccccc1)C(=O)C(=O)NCC(=O)NC(Cc1ccc(OC)cc1)C(N)=O (centres unmarked) [PHELIX355, benzyl (1-((1-((2-((1-amino-3-(4-methoxyphenyl)-1-oxopropan-2-yl)amino)-2-oxoethyl)amino)-4-methyl-1,2-dioxohexan-3-yl)amino)-4-methyl-1-oxopentan-2-yl)carbamate] |  | 0.00157 | 0.00171 |
| CCC(C)C(NC(=O)C(CC(C)C)NC(=O)OCc1ccccc1)C(=O)C(=O)NCC(=O)NC(Cc1cccnc1)C(N)=O (centres unmarked) [PHELIX356, benzyl (1-((1-((2-((1-amino-1-oxo-3-(pyridin-3-yl)propan-2-yl)amino)-2-oxoethyl)amino)-4-methyl-1,2-dioxohexan-3-yl)amino)-4-methyl-1-oxopentan-2-yl)carbamate] |  | 0.0112 | 0.00917 |
| CCC(C)C(NC(=O)C(CC(C)C)NC(=O)OCc1ccccc1)C(=O)C(=O)NCC(=O)NC(Cc1ccncc1)C(N)=O (centres unmarked) [PHELIX357, benzyl (1-((1-((2-((1-amino-1-oxo-3-(pyridin-4-yl)propan-2-yl)amino)-2-oxoethyl)amino)-4-methyl-1,2-dioxohexan-3-yl)amino)-4-methyl-1-oxopentan-2-yl)carbamate] |  | 0.00439 | 0.0155 |
| CCC(C)C(NC(=O)C(CC(C)C)NC(=O)OCc1ccccc1)C(=O)C(=O)NC(Cc1cccc(F)c1)C(N)=O (centres unmarked) [PHELIX359, benzyl (1-((1-((1-amino-3-(3-fluorophenyl)-1-oxopropan-2-yl)amino)-4-methyl-1,2-dioxohexan-3-yl)amino)-4-methyl-1-oxopentan-2-yl)carbamate] |  | 0.00073 | 0.00203 |
| CCC(C)C(NC(=O)C(CC(C)C)NC(=O)OCc1ccccc1)C(=O)C(=O)NC(Cc1ccc2ccccc2c1)C(=O)N(C)C (centres unmarked) [PHELIX360, benzyl (1-((1-((1-(dimethylamino)-3-(naphthalen-2-yl)-1-oxopropan-2-yl)amino)-4-methyl-1,2-dioxohexan-3-yl)amino)-4-methyl-1-oxopentan-2-yl)carbamate] |  | 0.0291 | 0.0441 |
| CCC(C)C(NC(=O)C(CC(C)C)NC(=O)OCc1ccccc1)C(=O)C(=O)N1CC(C(=O)NCc2n[nH]c3c2CCC3)C1 (centres unmarked) [PHELIX364, benzyl (4-methyl-1-((4-methyl-1,2-dioxo-1-(3-(((1,4,5,6-tetrahydrocyclopenta[c]pyrazol-3-yl)methyl)carbamoyl)azetidin-1-yl)hexan-3-yl)amino)-1-oxopentan-2-yl)carbamate] |  | 0.117 | 0.0321 |
| CCC(C)C(NC(=O)C(CC(C)C)NC(=O)OCc1ccccc1)C(=O)C(=O)N1CC(C(=O)NCc2ccc(C(=N)N)cc2)C1 (centres unmarked) [PHELIX366, benzyl (1-((1-(3-((4-carbamimidoylbenzyl)carbamoyl)azetidin-1-yl)-4-methyl-1,2-dioxohexan-3-yl)amino)-4-methyl-1-oxopentan-2-yl)carbamate] |  | 0.137 | 0.442 |
| CC[C@H](C)C(NC(=O)[C@H](CC(C)C)NC(=O)OCc1ccccc1)C(=O)C(=O)N1CC(C(=O)O)C1 (some centres unmarked) [PHELIX367, 1-(3-(2-(((benzyloxy)carbonyl)amino)-4-methylpentanamido)-4-methyl-2-oxohexanoyl)azetidine-3-carboxylic acid] |  | 0.906 | > 1 |

The next lines start with the values.

| Ki (Cathepsin B) [µM] | Ki (Cathepsin L) [µM] | Ki (Calpain) [µM] | Compound |
| --- | --- | --- | --- |
| 27.8 | 69.8 |  | CC[C@H](C)[C@H](NC(=O)C(=O)C(C)NC(=O)Cc1ccccc1)C(=O)N1CCC[C@H]1C(=O)O (some centres unmarked) [PHELIX138, (2-oxo-3-(2-phenylacetamido)butanoyl)isoleucylproline] |
|  | 0.00276 | 0.00168 | CCC(C)C(NC(=O)C(CC(C)C)NC(=O)OCc1ccccc1)C(=O)C(=O)NCC(=O)NC(Cc1cccc(F)c1)C(N)=O (centres unmarked) [PHELIX348, benzyl (1-((1-((2-((1-amino-3-(3-fluorophenyl)-1-oxopropan-2-yl)amino)-2-oxoethyl)amino)-4-methyl-1,2-dioxohexan-3-yl)amino)-4-methyl-1-oxopentan-2-yl)carbamate] |
|  | 0.00211 | 0.00227 | CCC(C)C(NC(=O)C(CC(C)C)NC(=O)OCc1ccccc1)C(=O)C(=O)NCC(=O)NC(Cc1ccc(F)cc1)C(N)=O (centres unmarked) [PHELIX349, benzyl (1-((1-((2-((1-amino-3-(4-fluorophenyl)-1-oxopropan-2-yl)amino)-2-oxoethyl)amino)-4-methyl-1,2-dioxohexan-3-yl)amino)-4-methyl-1-oxopentan-2-yl)carbamate] |
|  | 0.0042 | 0.00345 | CCC(C)C(NC(=O)C(CC(C)C)NC(=O)OCc1ccccc1)C(=O)C(=O)NCC(=O)NC(Cc1ccc(C#N)cc1)C(N)=O (centres unmarked) [PHELIX350, benzyl (1-((1-((2-((1-amino-3-(4-cyanophenyl)-1-oxopropan-2-yl)amino)-2-oxoethyl)amino)-4-methyl-1,2-dioxohexan-3-yl)amino)-4-methyl-1-oxopentan-2-yl)carbamate] |
|  | 0.00045 | 0.0003 | CCC(C)C(NC(=O)C(CC(C)C)NC(=O)Cc1cccnc1)C(=O)C(=O)NCC(=O)N(C)C(Cc1ccccc1)C(N)=O (centres unmarked) [PHELIX351, N-(2-((1-amino-1-oxo-3-phenylpropan-2-yl)(methyl)amino)-2-oxoethyl)-4-methyl-3-(4-methyl-2-(2-(pyridin-3-yl)acetamido)pentanamido)-2-oxohexanamide] |
|  | 0.00048 | 0.00193 | CCC(C)C(NC(=O)C(CC(C)C)NC(=O)CN1CCOCC1)C(=O)C(=O)NCC(=O)N(C)C(Cc1ccccc1)C(N)=O (centres unmarked) [PHELIX352, N-(2-((1-amino-1-oxo-3-phenylpropan-2-yl)(methyl)amino)-2-oxoethyl)-4-methyl-3-(4-methyl-2-(2-morpholinoacetamido)pentanamido)-2-oxohexanamide] |
|  | 0.0196 | 0.0101 | CCC(C)C(NC(=O)C(CC(C)C)NC(=O)CN1CCOCC1)C(=O)C(=O)NC(Cc1ccc2ccccc2c1)C(N)=O (centres unmarked) [PHELIX354, N-(1-amino-3-(naphthalen-2-yl)-1-oxopropan-2-yl)-4-methyl-3-(4-methyl-2-(2-morpholinoacetamido)pentanamido)-2-oxohexanamide] |
|  | 0.0237 | 0.0415 | CCC(C)C(NC(=O)C(CC(C)C)NC(=O)OCc1ccccc1)C(=O)C(=O)NC(Cc1ccc2ccccc2c1)C(=O)NC1CC1 (centres unmarked) [PHELIX361, benzyl (1-((1-((1-(cyclopropylamino)-3-(naphthalen-2-yl)-1-oxopropan-2-yl)amino)-4-methyl-1,2-dioxohexan-3-yl)amino)-4-methyl-1-oxopentan-2-yl)carbamate] |
|  | 0.157 | 0.63 | CCC(C)C(NC(=O)C(CC(C)C)NC(=O)OCc1ccccc1)C(=O)C(=O)N1CC(C(=O)NCc2cncnc2)C1 (centres unmarked) [PHELIX362, benzyl (4-methyl-1-((4-methyl-1,2-dioxo-1-(3-((pyrimidin-5-ylmethyl)carbamoyl)azetidin-1-yl)hexan-3-yl)amino)-1-oxopentan-2-yl)carbamate] |
|  | 0.0194 | 0.178 | CCC(C)C(NC(=O)C(CC(C)C)NC(=O)OCc1ccccc1)C(=O)C(=O)N1CC(C(=O)NCc2ccc3ccccc3c2)C1 (centres unmarked) [PHELIX363, benzyl (4-methyl-1-((4-methyl-1-(3-((naphthalen-2-ylmethyl)carbamoyl)azetidin-1-yl)-1,2-dioxohexan-3-yl)amino)-1-oxopentan-2-yl)carbamate] |
|  | 0.0179 | 0.00621 | CCC(C)C(NC(=O)C(CC(C)C)NC(=O)Cc1cncnc1)C(=O)C(=O)NCC(=O)NC(Cc1ccc2ccccc2c1)C(N)=O (centres unmarked) [PHELIX365, N-(2-((1-amino-3-(naphthalen-2-yl)-1-oxopropan-2-yl)amino)-2-oxoethyl)-4-methyl-3-(4-methyl-2-(2-(pyrimidin-5-yl)acetamido)pentanamido)-2-oxohexanamide] |
